Consider 27 compounds from US9758485B2, “Compounds for controlling arthropods” (priority 2013, dated 2017).

Each structure is given as a SMILES string.

The nature of data set [1]: logP determination by HPLC on a reversed-phase column (C18), EEC Directive 79/831 Annex V.A8. Format: physicochemical. The conditions noted are these: for logP^a): HPLC-MS method a), Table I-T3; for log P: HPLC-MS, reversed-phase column (C18).
The subject of data set [2] is Lucilia cuprina. The data set can be described thus: Lucilia cuprina test. Format: in vivo. Conditions: application rate 100 ppm; L1 larvae in minced horsemeat; kill after 2 days. The protocol: (§1) Solvent: dimethyl sulphoxide
(§2) To produce an appropriate active ingredient formulation, 10 mg of active ingredient are mixed with 0.5 ml of dimethyl sulphoxide, and the concentrate is diluted with water to the desired concentration.
About 20 L1 larvae of the Australian sheep blowfly (Lucilia cuprina) are transferred into a test vessel containing minced horsemeat and the active ingredient preparation of the desired concentration.
After 2 days, the kill in % is determined. 100% means that all the larvae have been killed; 0% means that none of the larvae have been killed.

Data set [3] relates to Ctenocephalides felis. The data set can be described thus: Ctenocephalides felis - oral test. Format: in vivo. Conditions: application rate 100 ppm in citrated cattle blood; adult fleas; kill after 2 days. The protocol:
Ctenocephalides felis—Oral Test
as §1
For the purpose of producing an appropriate active ingredient formulation, 10 mg of active ingredient are mixed with 0.5 ml of dimethyl sulphoxide. Dilution with citrated cattle blood gives the desired concentration.
About 20 unfed adult cat fleas (Ctenocephalides felis) are placed into a chamber which is closed at the top and bottom with gauze. A metal cylinder whose bottom end is closed with parafilm is placed onto the chamber. The cylinder contains the blood/active ingredient preparation, which can be imbibed by the fleas through the parafilm membrane.
After 2 days, the kill in % is determined. 100% means that all of the fleas have been killed; 0% means that none of the fleas have been killed.

For data set [4], the system named is Boophilus microplus. The experiment in a line: Boophilus microplus - injection test. It counts as in vivo. The conditions noted are these: application rate 20 μg/animal; injected into engorged adult female ticks; laying of fertile eggs, after 7 days. The protocol: Boophilus microplus—Injection Test
as §1
To produce an appropriate active ingredient formulation, 10 mg of active ingredient are mixed with 0.5 ml of solvent and the concentrate is diluted with solvent to the desired concentration.
1 μl of the active ingredient solution is injected into the abdomen of 5 engorged adult female cattle ticks (Boophilus microplus). The animals are transferred into dishes and kept in a climate-controlled room.
Efficacy is assessed after 7 days by laying of fertile eggs. Eggs which are not visibly fertile are stored in a climate-controlled cabinet until the larvae hatch after about 42 days. An efficacy of 100% means that none of the ticks has laid any fertile eggs; 0% means that all the eggs are fertile.

In data set [5] the test system is Musca domestica. The data set can be described thus: Musca domestica test. Format: in vivo. The conditions noted are these: adult houseflies, kill after 2 days. The protocol:
as §1, §2
Vessels containing a sponge treated with sugar solution and the active ingredient formulation of the desired concentration are populated with 10 adult houseflies (Musca domestica).
After 2 days, the kill in % is determined. 100% means that all of the flies have been killed; 0% means that none of the flies have been killed.

For the compound `Cc1cc(C(F)(C(F)(F)F)C(F)(F)F)cc(C)c1-n1cc(-c2cncc(C(=O)NC3(C#N)CC3)c2)cn1` [I-T3-8], the “logP^a)” value in data set [1] was 3.4. Moreover, the efficacy in data set [2], in data set [3], in data set [4] and in data set [5] (application rate 100 ppm) was 100% in each case.
Regarding `O=C(NC1CC1)c1c(Cl)ccc(-c2cnn(-c3c(Cl)cc(C(F)(C(F)(F)F)C(F)(F)F)cc3Cl)c2)c1F` [I-T3-73], the “logP^a)” value in data set [1] is reported as 4.5. The efficacy in data set [2], in data set [3], in data set [4] and in data set [5] (application rate 100 ppm) was 100% each time.
With `Cc1cc(C(F)(C(F)(F)F)C(F)(F)F)cc(C)c1-n1cc(-c2ccc(Cl)c(C(=O)NC3CSC3)c2)cn1` [I-T3-4], the “logP^a)” value in data set [1] is recorded as 4.7. Besides, the efficacy in data set [2], in data set [3], in data set [4] and in data set [5] (application rate 100 ppm) was 100% each time.
Regarding `COc1ncc(-c2cnn(-c3c(C)cc(C(F)(C(F)(F)F)C(F)(F)F)cc3C)c2)cc1C(=O)N(C)C1CC1` [I-T3-144], in data set [1], the log P (commonly the decadic logarithm of the partition coefficient of the neutral form, usually between octanol and water) was 4.4. Besides, the efficacy in data set [2] is listed as 100%; in data set [3] it was 90%; in data set [4], 100%; in data set [5] (application rate 100 ppm), 100%.
For the compound `N#CC1(NC(=O)c2cc(-c3cnn(-c4ccc(OC(F)(F)F)cc4Cl)c3)ccc2Cl)CC1` [I-T3-89], the “logP^a)” value in data set [1] was determined as 3.5. Moreover, the efficacy in data set [2], in data set [3], in data set [4] and in data set [5] (application rate 100 ppm) was 100% each time.
For `Cc1cc(C(F)(C(F)(F)F)C(F)(F)F)cc(C)c1-n1cc(-c2ccc(Cl)c(C(=O)NC3(C#N)CC3)c2F)cn1` [I-T3-65], in data set [1], the “logP^a)” value was 4.3. For the same compound, the efficacy in data set [2], in data set [3], in data set [4] and in data set [5] (application rate 100 ppm) was 100% throughout.
`Cc1cc(C(F)(C(F)(F)F)C(F)(F)F)cc(C)c1-n1cc(-c2cc(C(=O)NC3CC3)cc(C(F)(F)F)c2)cn1` [I-T3-15]: the “logP^a)” value in data set [1] is reported as 4.9. Also, the efficacy stood at 100% in data set [2], 90% in data set [3] and 100% in data set [4].
On to `O=C(NCC(F)(F)F)c1cc(-c2cnn(-c3c(Cl)cc(C(F)(C(F)(F)F)C(F)(F)F)cc3C(F)(F)F)c2)ccc1Cl` [I-T3-58], for which the “logP^a)” value in data set [1] is recorded as 4.7. Moreover, the efficacy in data set [2], in data set [3], in data set [4] and in data set [5] (application rate 100 ppm) was 100% throughout.
With `CCc1cc(C(F)(C(F)(F)F)C(F)(F)F)cc(C)c1-n1cc(-c2ccc(Cl)c(C(=O)NC3CC3)c2F)cn1` [I-T3-68], the “logP^a)” value in data set [1] was 4.8. Moreover, the efficacy in data set [2] is on record as 100%; in data set [3], 100%; in data set [4], 100%; in data set [5] (application rate 100 ppm), 80%.
With `CCc1cc(C(F)(C(F)(F)F)C(F)(F)F)cc(C)c1-n1cc(-c2cncc(C(=O)NC3(C#N)CC3)c2)cn1` [I-T3-76], the “logP^a)” value in data set [1] was determined as 3.4. Also, the efficacy was found to be 90% in data set [2], 100% in data set [3], 100% in data set [4] and 90% in data set [5] (application rate 100 ppm).
As for `CCc1cc(C(F)(F)C(F)(F)F)cc(C)c1-n1cc(-c2ccc(Cl)c(C(=O)NCC(F)(F)F)c2)cn1` [I-T3-82], the “logP^a)” value in data set [1] stood at 4.0. Besides, the efficacy was determined as 100% in data set [2], 95% in data set [3] and 100% in data set [4].
As to `Cn1ccc(NC(=O)c2cc(-c3cnn(-c4c(Cl)cc(C(F)(F)F)cc4Cl)c3)cnc2Cl)n1` [I-T3-146], the log partition coefficient (log P) in data set [1] came out at 2.8. Moreover, the values for the efficacy in data set [2], in data set [3] and in data set [4] were 90%, 100% and 100%, respectively.
With `N#CC1(NC(=O)c2cc(-c3cnn(-c4ncc(C(F)(F)F)cc4C(F)(F)F)c3)ccc2Cl)CC1` [I-T3-149], in data set [1], the log partition coefficient (log P) was determined as 3.5. Moreover, the efficacy in data set [2], in data set [3], in data set [4] and in data set [5] (application rate 100 ppm) was 100% each time.
On to `Cc1cc(C(F)(C(F)(F)F)C(F)(F)F)cc(C)c1-n1cc(-c2ccc(Cl)c(C(=O)NC3(C(F)(F)F)CC3)c2)cn1` [I-T3-5], for which the “logP^a)” value in data set [1] was 4.6. In addition, the efficacy in data set [2], in data set [3], in data set [4] and in data set [5] (application rate 100 ppm) was 100% in each case.
With `N#CC1(NC(=O)c2cc(-c3cnn(-c4ccc(C(F)(C(F)(F)F)C(F)(F)F)cc4OC(F)(F)F)c3)ccc2Cl)CC1` [I-T3-34], the “logP^a)” value in data set [1] was 4.6. For the same compound, the efficacy in data set [2], in data set [3], in data set [4] and in data set [5] (application rate 100 ppm) was 100% in each case.
Regarding `CCc1cc(C(F)(C(F)(F)F)C(F)(F)F)ccc1-n1cc(-c2ccc(Cl)c(C(=O)NCC(F)(F)F)c2)cn1` [I-T3-40], the “logP^a)” value in data set [1] worked out at 4.9. The efficacy in data set [2], in data set [3] and in data set [4] was 100% each time.
Turning to `O=C(NCCC(F)(F)F)c1cc(-c2cnn(-c3ccc(C(F)(C(F)(F)F)C(F)(F)F)cc3Cl)c2)ccc1Cl` [I-T3-33], the “logP^a)” value in data set [1] worked out at 4.7. Moreover, the efficacy in data set [2], in data set [3] and in data set [4] was 100% in each case.
As to `Cc1cc(C(F)(C(F)(F)F)C(F)(F)F)cc(C)c1-n1cc(-c2cnc(C3CC3)c(C(=O)NC3(C#N)CC3)c2)cn1` [I-T3-139], the lipophilicity (log P) in data set [1] is 4.1. Moreover, the efficacy was 100% in data set [2], 100% in data set [3], 100% in data set [4] and 90% in data set [5] (application rate 100 ppm).
In the case of `O=C(NC1CC1)c1cc(-c2cnn(-c3ncc(C(F)(F)F)cc3Cl)c2)ccc1Cl` [I-T3-60], in data set [1], the “logP^a)” value stood at 3.2. Moreover, the results for the efficacy in data set [2], in data set [3] and in data set [4] were 90%, 90% and 100%, respectively.
Take `O=C(NC1CC1)c1cc(-c2cnn(-c3ccc(C(F)(C(F)(F)F)C(F)(F)F)cc3OC(F)(F)F)c2)ccc1Cl` [I-T3-35]: the “logP^a)” value in data set [1] came to 4.7. In addition, the efficacy in data set [2] was determined as 100%; in data set [3] it was 100%; in data set [4], 100%; in data set [5] (application rate 4 ppm), 80%.
For `Cc1cc(C(F)(C(F)(F)F)C(F)(F)F)cc(C)c1-n1cc(-c2cnc(C3CC3)c(C(=O)NC3CC3)c2)cn1` [I-T3-140], the “log P” value in data set [1] stood at 4.2. Also, the efficacy in data set [2], in data set [3] and in data set [4] was 100% each time.
Consider `O=C(NCC(F)(F)F)c1cc(-c2cnn(-c3ccc(C(F)(C(F)(F)F)C(F)(F)F)cc3Cl)c2)ccc1Cl` [I-T3-32], for which, in data set [1], the “logP^a)” value came out at 4.7. In addition, the efficacy in data set [2], in data set [3] and in data set [4] was 100% each time.
For the compound `O=C(NC1CSC1)c1cc(-c2cnn(-c3ccc(C(F)(C(F)(F)F)C(F)(F)F)cc3OC(F)(F)F)c2)ccc1Cl` [I-T3-37], the “logP^a)” value in data set [1] came to 4.9. The efficacy in data set [2] is 100%; in data set [3] it was 90%; in data set [4], 100%.
In the case of `O=C(NCC(F)(F)F)c1cc(-c2cnn(-c3ccc(C(F)(C(F)(F)F)C(F)(F)F)cc3OC(F)(F)F)c2)ccc1Cl` [I-T3-36], in data set [1], the “logP^a)” value is reported as 5.0. In addition, the efficacy was 100% in data set [2], 80% in data set [3] and 100% in data set [4].
Consider `CCc1cc(C(F)(C(F)(F)F)C(F)(F)F)cc(C)c1-n1cc(-c2cccc(C(=O)NC3(C#N)CC3)c2F)cn1` [I-T3-69], for which the “logP^a)” value in data set [1] is listed as 4.5. The efficacy in data set [2] was 95%; in data set [3], 100%; in data set [4], 100%.
Regarding `CCc1cc(C(F)(C(F)(F)F)C(F)(F)F)cc(C)c1-n1cc(-c2cccc(C(=O)NC3CC3)c2F)cn1` [I-T3-70], the “logP^a)” value in data set [1] is listed as 4.7. Also, the efficacy in data set [2] is reported as 100%; in data set [3], 95%; in data set [4], 100%.
Turning to `CCc1cc(C(F)(C(F)(F)F)C(F)(F)F)cc(C)c1-n1cc(-c2ccc(Cl)c(C(=O)NCC(F)(F)F)c2)cn1` [I-T3-45], in data set [1], the “logP^a)” value stood at 5.0. Besides, the figures for the efficacy in data set [2], in data set [3] and in data set [4] were 100%, 95% and 100%, respectively.
